From patent US20220289692A1, “NLRP3 INHIBITORS” (Inflazome Limited, priority 2019, published 2022)

Tests used:
NLRP3 [1] = molecular target: T1, NLRP3 (Homo sapiens, UniProt Q96P20); test: THP-1 cells pyroptosis assay (LPS priming, nigericin, resazurin read-out); assay type: cell-based; parameters: Seed THP-1 cells (25,000 cells/well) containing 1.0 μg/ml LPS in 40 μl of RPMI medium; host or cells: THP-1 cells, LPS-primed, nigericin-stimulated; conditions: 1.0 μg/ml LPS, 3 hrs compound, nigericin 5 μM 1 hr
T1 sequence (Q96P20 whole entry): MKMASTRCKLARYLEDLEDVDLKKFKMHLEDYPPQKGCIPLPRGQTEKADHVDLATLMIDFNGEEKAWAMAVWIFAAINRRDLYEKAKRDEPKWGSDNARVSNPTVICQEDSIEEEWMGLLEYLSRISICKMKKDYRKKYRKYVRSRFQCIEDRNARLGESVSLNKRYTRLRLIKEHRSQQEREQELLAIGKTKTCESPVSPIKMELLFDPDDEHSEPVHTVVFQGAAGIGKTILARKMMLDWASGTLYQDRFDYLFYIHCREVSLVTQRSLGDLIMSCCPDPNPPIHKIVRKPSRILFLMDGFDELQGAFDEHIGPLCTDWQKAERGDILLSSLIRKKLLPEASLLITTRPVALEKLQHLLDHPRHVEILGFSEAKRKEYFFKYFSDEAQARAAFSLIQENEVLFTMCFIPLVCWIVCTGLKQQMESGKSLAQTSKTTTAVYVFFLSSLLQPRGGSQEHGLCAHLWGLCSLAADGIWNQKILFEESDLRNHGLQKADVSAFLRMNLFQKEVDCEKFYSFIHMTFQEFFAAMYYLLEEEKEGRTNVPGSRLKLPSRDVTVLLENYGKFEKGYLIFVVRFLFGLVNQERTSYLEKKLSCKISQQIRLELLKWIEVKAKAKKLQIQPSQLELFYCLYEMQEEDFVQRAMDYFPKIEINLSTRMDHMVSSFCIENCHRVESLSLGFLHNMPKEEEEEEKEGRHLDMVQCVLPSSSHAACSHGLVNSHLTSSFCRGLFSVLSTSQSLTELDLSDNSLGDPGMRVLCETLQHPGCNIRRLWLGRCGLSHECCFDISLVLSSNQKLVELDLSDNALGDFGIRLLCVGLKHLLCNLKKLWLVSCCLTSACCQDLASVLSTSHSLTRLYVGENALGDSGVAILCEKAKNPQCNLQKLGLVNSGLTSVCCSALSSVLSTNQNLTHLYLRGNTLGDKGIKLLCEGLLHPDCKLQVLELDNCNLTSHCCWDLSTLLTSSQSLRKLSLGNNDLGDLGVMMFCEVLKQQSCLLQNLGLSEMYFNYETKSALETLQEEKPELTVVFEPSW
Description: THP-1 cells (ATCC #TIB-202) were grown in RPMI containing L-glutamine (Gibco #11835) supplemented with 1 mM sodium pyruvate (Sigma #S8636) and penicillin (100 units/ml)/streptomycin (0.1 mg/ml) (Sigma #P4333) in 10% Fetal Bovine Serum (FBS) (Sigma #F0804). The cells were routinely passaged and grown to confluency (˜10^6 cells/ml). On the day of the experiment, THP-1 cells were harvested and resuspended into RPMI medium (without FBS). The cells were then counted and viability (>90%) checked by Trypan blue (Sigma #T8154). Appropriate dilutions were made to give a concentration of 625,000 cells/ml. To this diluted cell solution was added LPS (Sigma #L4524) to give a […] Final Assay Concentration (FAC). 40 μl of the final preparation was aliquoted into each well of a 96-well plate. The plate thus prepared was used for compound screening. The following method step-by-step assay was followed for compound screening. • 1. Seed THP-1 cells (25,000 cells/well) containing 1.0 μg/ml LPS in 40 μl of RPMI medium (without FBS) in 96-well, black walled, clear bottom cell culture plates coated with poly-D-lysine (VWR #734-0317) • 2. Add 5 μl compound (8 points half-log dilution, with 10 μM top dose) or vehicle (DMSO 0.1% FAC) to the appropriate wells • 3. Incubate for 3 hrs at 37° C., 5% CO2 • 4. Add 5 μl nigericin (Sigma #N7143) (FAC 5 μM) to all wells • 5. Incubate for 1 hr at 37° C., 5% CO2 • 6. At the end of the incubation period, spin plates at 300×g for 3 mins and remove supernatant • 7. Then add 50 μl of resazurin (Sigma #R7017) (FAC 100 μM resazurin in RPMI medium without FBS) and incubate plates for a further 1-2 hrs at 37° C. and 5% CO2 • 8. Plates were read in an Envision reader at Ex 560 nm and Em 590 nm • 9. IC50 data is fitted to a non-linear regression equation (log inhibitor vs response-variable slope 4-parameters) The results of the pyroptosis assay are summarised in Table 1 below as THP IC50.

NLRP3 [2] = molecular target: T1, NLRP3; test: Human whole blood IL-1β release assay (LPS, nigericin, AlphaLisa); assay type: cell-based; parameters: Plate out 80 μl of whole blood containing 1 μg/ml of LPS in 96-well, clear bottom cell culture plate; from tissue; host or cells: human whole blood from healthy donors, LPS-primed, nigericin-stimulated; conditions: 1 μg/ml LPS, 3 hrs compound, nigericin 10 μM 1 hr, read-out: HWB IC50
Description: For systemic delivery, the ability to inhibit NLRP3 when the compounds are present within the bloodstream is of great importance. For this reason, the NLRP3 inhibitory activity of a number of compounds in human whole blood was investigated in accordance with the following protocol.
Human whole blood in Li-heparin tubes was obtained from healthy donors from a volunteer donor panel. • 1. Plate out 80 μl of whole blood containing 1 μg/ml of LPS in 96-well, clear bottom cell culture plate (Corning #3585) • 2. Add 10 μl compound (8 points half-log dilution with 10 μM top dose) or vehicle (DMSO 0.1% FAC) to the appropriate wells • 3. Incubate for 3 hrs at 37° C., 5% CO2 • 4. Add 10 μl nigericin (Sigma #N7143) (10 μM FAC) to all wells • 5. Incubate for 1 hr at 37° C., 5% CO2 • 6. At the end of the incubation period, spin plates at 300×g for 5 mins to pellet cells and remove 20 μl of supernatant and add to 96-well v-bottom plates for IL-1β analysis (note: these plates containing the supernatants can be stored at −80° C. to be analysed at a later date) • 7. IL-1β was measured according to the manufacturer protocol (Perkin Elmer-AlphaLisa IL-1 Kit AL220F-5000) • 8. IC50 data is fitted to a non-linear regression equation (log inhibitor vs response-variable slope 4-parameters)

IC50 (NLRP3 [1]) [µM]	IC50 (NLRP3 [2]) [µM]	Structure (SMILES)
≤ 2	–	COC(=O)c1nnc(Nc2c3c(cc4c2CCC4)CCC3)[nH]1 [Example 7]
≤ 5	–	O=C(OCc1ccccc1)c1nnc(Nc2c3c(cc4c2CCC4)CCC3)[nH]1 [Example 4]
≤ 5	–	COC(=O)c1nnc(Nc2c3c(cc(C)c2-c2ccnc(OC)c2)CCC3)[nH]1 [Example 5]
≤ 2	≤ 5	CCOC(=O)c1nnc(Nc2c3c(cc4c2CCC4)CCC3)[nH]1 [Example 1, ethyl 5-((1,2,3,5,6,7-hexahydro-s-indacen-4-yl)amino)-4H-1,2,4-triazole-3-carboxylate]
≤ 10	–	O=C(OCc1cccnc1)c1nnc(Nc2c3c(cc4c2CCC4)CCC3)[nH]1 [Example 2, pyridin-3-ylmethyl 5-((1,2,3,5,6,7-hexahydro-s-indacen-4-yl)amino)-4H-1,2,4-triazole-3-carboxylate]
≤ 10	–	COC(=O)c1nnc(Nc2c(-c3ccnc(OC4CCN(C)CC4)c3)ccc3c2CCC3)[nH]1 [Example 3]
≤ 10	–	CC(C)OC(=O)c1nnc(Nc2c3c(cc4c2CCC4)CCC3)[nH]1 [Example 6]
≤ 5	–	CCOC(=O)c1nnc(Nc2c(-c3ccnc(OC)c3)ccc3c2CCC3)[nH]1 [Example 8]
